{"source": "the NIST ThermoML archive (doi:10.1016/j.jct.2013.10.005)", "details": "298 K; 101.33 kPa; Crystal; X-ray diffraction", "note": "Numbers after ± are expanded uncertainties.", "data": [{"smiles": "O.O.O.O.O=C([O-])[C@H](O)[C@@H](O)[C@H](O)[C@H](O)CO.O=C([O-])[C@H](O)[C@@H](O)[C@H](O)[C@H](O)CO.[Ba+2]", "note": "[barium D-gluconate tetrahydrate]", "values": [{"measurement": "mass density", "value": "1969 ± 10", "unit": "kg/m3"}]}]}
